As usually defined, the IC50 is the point on the concentration scale where inhibition reaches its midpoint.

The target in experiment [1] is T1, Prostaglandin G/H synthase 2 (Ovis aries, UniProt P79208).
T1 sequence (P79208 whole entry): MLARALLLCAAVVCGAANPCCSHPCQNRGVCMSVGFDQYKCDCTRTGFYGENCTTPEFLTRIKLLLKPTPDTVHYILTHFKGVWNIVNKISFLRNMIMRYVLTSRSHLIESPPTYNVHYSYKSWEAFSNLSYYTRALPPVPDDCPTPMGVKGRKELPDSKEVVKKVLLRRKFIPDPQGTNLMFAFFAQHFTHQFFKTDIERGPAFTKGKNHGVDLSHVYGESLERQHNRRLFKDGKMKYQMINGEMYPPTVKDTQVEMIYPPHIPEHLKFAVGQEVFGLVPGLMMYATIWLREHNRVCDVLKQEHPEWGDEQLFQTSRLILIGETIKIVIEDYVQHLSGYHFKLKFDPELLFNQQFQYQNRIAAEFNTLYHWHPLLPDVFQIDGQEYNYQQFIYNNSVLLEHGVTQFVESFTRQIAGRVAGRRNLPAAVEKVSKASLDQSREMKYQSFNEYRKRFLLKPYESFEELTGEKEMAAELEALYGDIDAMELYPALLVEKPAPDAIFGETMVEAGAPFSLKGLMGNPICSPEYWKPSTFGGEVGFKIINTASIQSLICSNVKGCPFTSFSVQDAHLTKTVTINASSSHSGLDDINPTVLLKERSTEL
The experiment is described as follows: Inhibition of sheep COX2-mediated PGE2 production after 2 mins by liquid scintillation counting.

Experiment [2] has as its target T2, Prostaglandin G/H synthase 1 (Ovis aries, UniProt P05979).
T2 sequence (P05979 whole entry): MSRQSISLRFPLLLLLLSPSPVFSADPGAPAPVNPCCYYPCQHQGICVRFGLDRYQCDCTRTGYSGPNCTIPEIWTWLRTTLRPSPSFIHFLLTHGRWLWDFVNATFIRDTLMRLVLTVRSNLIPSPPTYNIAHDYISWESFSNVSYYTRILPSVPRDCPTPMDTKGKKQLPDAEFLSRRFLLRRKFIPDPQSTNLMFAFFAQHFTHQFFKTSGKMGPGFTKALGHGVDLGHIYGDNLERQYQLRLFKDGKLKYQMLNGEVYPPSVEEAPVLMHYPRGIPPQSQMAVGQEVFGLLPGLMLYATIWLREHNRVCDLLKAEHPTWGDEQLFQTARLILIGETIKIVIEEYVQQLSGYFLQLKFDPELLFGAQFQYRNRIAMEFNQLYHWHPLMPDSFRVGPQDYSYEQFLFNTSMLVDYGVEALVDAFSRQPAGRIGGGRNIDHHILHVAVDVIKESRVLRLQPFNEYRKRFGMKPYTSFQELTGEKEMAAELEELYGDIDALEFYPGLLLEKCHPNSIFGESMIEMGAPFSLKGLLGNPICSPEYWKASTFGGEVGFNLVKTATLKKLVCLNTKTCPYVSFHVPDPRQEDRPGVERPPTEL
The experiment can be described thus: Inhibition of sheep COX1-mediated PGE2 production after 2 mins by liquid scintillation counting.

Structures are written as SMILES.

`CCCCCCCCCCCC(=O)O[C@@H]1[C@@H](O)[C@@H](OC(=O)/C=C/c2ccccc2)[C@H](O[C@@H]2[C@@H](O)[C@@H](OC(=O)CCCCCCCCC)[C@H](O[C@@H]3[C@H]4OC(=O)CCCCCCCCC[C@H](CCCCC)O[C@@H]5O[C@H](C)[C@H](O)[C@H](O)[C@H]5O[C@H](O[C@H]3C)[C@@H]4O)O[C@H]2C)O[C@H]1C` [IPOMOTAOSIDE C]: the IC50 result in experiment [1] and in experiment [2] was “Not Active” each time.
Take `CCCCCCCCCCCC(=O)O[C@@H]1[C@@H](O)[C@@H](OC(=O)/C=C/c2ccccc2)[C@H](O[C@@H]2[C@@H](OC(=O)CCCCCCCCC)[C@@H](O)[C@H](O[C@@H]3[C@@H](O)[C@H]4OC(=O)CCCCCCCCC[C@H](CCCCC)O[C@@H]5O[C@H](C)[C@H](O)[C@H](O)[C@H]5O[C@@H]4O[C@H]3C)O[C@H]2C)O[C@H]1C` [IPOMOTAOSIDE A]: the IC50 in experiment [1] (read-out: IC50) came to 14.5 µM; in experiment [2] (read-out: IC50), 9.3 µM.
In the same order, the values of `CCCCCCCCCCCC(=O)O[C@@H]1[C@@H](O)[C@@H](OC(=O)/C=C/c2ccccc2)[C@H](O[C@@H]2[C@@H](O)[C@@H](OC(=O)CCCCCCCCCCC)[C@H](O[C@@H]3[C@@H](O)[C@H]4OC(=O)CCCCCCCCC[C@H](CCCCC)O[C@@H]5O[C@H](C)[C@H](O)[C@H](O)[C@H]5O[C@@H]4O[C@H]3C)O[C@H]2C)O[C@H]1C` [IPOMOTAOSIDE B] are 147 µM and 132 µM.
Take `CCCCCCCCCCCC(=O)O[C@@H]1[C@@H](O)[C@@H](OC(=O)/C=C/c2ccccc2)[C@H](O[C@@H]2[C@@H](OC(=O)CCCCCCCCC)[C@@H](O)[C@H](O[C@@H]3[C@H]4OC(=O)CCCCCCCCC[C@H](CCCCC)O[C@@H]5O[C@H](C)[C@H](O)[C@H](O)[C@H]5O[C@H](O[C@H]3C)[C@@H]4O)O[C@H]2C)O[C@H]1C` [IPOMOTAOSIDE D]: the IC50 entry in experiment [1] and in experiment [2] was “Not Active” in each case.
